The values that follow are results of earlier work, collected in US10125164B2, “Process for preparing D-arginyl-2,6-dimethyl-L-tyrosyl-L-lysyl-L-phenylalaninamide” (FLAMMA S.P.A., priority 2014, dated 2018).

Data set [1] has as its system inner mitochondrial membrane.
The target in a further data set is mu-opioid receptor (Homo sapiens, UniProt P35372).
The test system of the next data set is N2A neuronal cell line. As to conditions: compound <1 nM.
Data set [2] deals with unilateral ureteral obstruction. The note with it: rats, intraperitoneal 1 and 3 mg/kg, 1 day prior to obstruction and every day thereafter for 14 days.
Data set [3] has as its system SH-SY5Y neuronal cell line. The note with it: compound <1 nM.
Another data set concerns mouse pancreatic islets. As to conditions: 3 mg/kg i.p. qd for 2 weeks.
The subject of data set [4] is G93A mouse model of amyotrophic lateral sclerosis. As to conditions: 5 mg/kg/day i.p. starting at 30 days of age.

Where a SMILES comes first, the peptide text is derived from it. [ ]: non-standard residue; d: D form. Dmt = Cc1cc(O)cc(C)c1C[C@H](N)C(=O)O

Chain of mu-opioid receptor (P35372 whole entry): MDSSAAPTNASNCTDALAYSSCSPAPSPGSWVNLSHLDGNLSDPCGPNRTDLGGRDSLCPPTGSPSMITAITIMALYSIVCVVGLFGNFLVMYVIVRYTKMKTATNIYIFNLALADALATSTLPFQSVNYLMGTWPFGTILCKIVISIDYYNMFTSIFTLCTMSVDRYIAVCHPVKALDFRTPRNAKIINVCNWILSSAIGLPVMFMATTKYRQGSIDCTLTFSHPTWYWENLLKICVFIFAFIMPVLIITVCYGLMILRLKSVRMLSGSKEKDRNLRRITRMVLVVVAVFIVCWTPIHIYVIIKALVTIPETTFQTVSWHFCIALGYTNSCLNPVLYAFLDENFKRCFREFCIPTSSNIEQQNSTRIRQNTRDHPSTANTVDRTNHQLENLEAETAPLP

Regarding `Cc1cc(O)cc(C)c1C[C@H](NC(=O)[C@H](N)CCCNC(=N)N)C(=O)N[C@@H](CCCCN)C(=O)N[C@@H](Cc1ccccc1)C(N)=O` [D-Arginyl-2,6-dimethyl-L-tyrosyl-L-lysyl-L-phenylalaninamide] (H-[dR][Dmt]KF-NH2), the antioxidant activity result in data set [1] is on record as “showed antioxidant activity”. Further, the “mu-opioid receptor agonist activity” value on mu-opioid receptor is given as “does not have mu-opioid receptor agonist activity”. In addition, in the data set with N2A neuronal cell line, the “intracellular reactive oxygen species” value was “significantly reduced”, the mitochondrial potential entry is “increased” and the tBHP-induced apoptosis entry is “prevented”. In data set [2], the interstitial fibrosis result was “significantly decreased”, the macrophage infiltration entry is “significantly decreased” and the tubular damage result is “significantly decreased”. Also, in data set [3], the “intracellular reactive oxygen species” value was “significantly reduced”, the mitochondrial potential result is “increased” and the tBHP-induced apoptosis entry is listed as “prevented”. Further, in the data set with mouse pancreatic islets, the “apoptosis in pancreatic islets caused by streptozotocin” value is “prevented” and the “insulin reduction in pancreatic islets caused by streptozotocin” value is reported as “prevented”. Moreover, the disease onset entry in data set [4] is “significant delay”.
